These results are taken from article PMC12321279, “Novel 4,5‐Dihydrothiazole‐Phenylpiperazine Derivatives: Synthesis, Docking Studies and Pharmacological Evaluation as Serotonergic Agents” (Chemmedchem, 2025).

Molecules are shown by their SMILES.

One test relates to mice. Description: Elevated plus maze test (EPM). In kind it is in vivo. As to the method:
The tests were performed on male white mice of the Albino Swiss strain, whose weight was between 24 and 30 g in Experimental Medicine Center, Medical University of Lublin, Poland. The animals were housed (four/five per cage). Before conducting the experimental tests, the animals were subjected to an adaptation that lasted seven days. This consisted of keeping them in a room with relatively constant conditions: a temperature of 22 ± 1 °C, a humidity of 55 ± 5% and lighting that mimicked the natural day and night rhythm (12 h/12 h). Constant access to food and water was provided. Standard feed—LSM Motycz pelleted feed—and tap water were used. Mice were randomly allocated to study groups. Each group was represented by 8–10 animals, depending on the research schedule. The experiments were performed according to the procedures set out in the regulations for animal experiments: National Institute of Health Guidelines for the Care and Use of Laboratory Animals (8th edition) and to the European Community Council Directive for the Care and Use of Laboratory Animals of 22 September 2010 (2010/63/EU). The study was approved by the Local Ethical Committee in Lublin (number of ethical approvals: 27/2023). Tested compounds: FG‐1, FG‐4, FG‐5, FG‐6, FG‐7, FG‐8, and FG‐18 were finely ground in mortars with the addition of the emulsifier Tween‐80. A suspension was obtained, which was then diluted with aqueous solution of 0.5% methylcellulose (tylose). The mixture was then administered intraperitoneally (i.p.) to the animals 60 min before the start of the experiments. Animals in the control groups received a 0.5% tylose solution. All substances were administered via the same route of administration in appropriate dose and volume of 0.1 mL per 10 g of animal body weight. Prior to the administration of the drug, the animals were weighed, during the interval between tests, they were provided with food, water, and constant living conditions. The EPM test is performed using an apparatus developed by Lister;^[ [44] ^] it consists of two open arms (30 × 5 cm) and two enclosed arms (30 × 5 × 15 cm) and a central platform (5 × 5 cm) it is placed at a height of 45 cm from the floor. The labyrinth was made of Plexiglas. The experiments were conducted in a darkened and quiet room. The central square of the maze was evenly illuminated with a dull red light. In the test, the mouse is observed for 5 min, and the number of entries into the open and closed arms and the time spent in them are recorded. The person carrying out the experiment remains constantly in the same place. Entering an individual arm is considered when the mouse has placed all four limbs outside the central square. The experiment measures: 1) the time spent by the mouse into the open arms of the maze, expressed as a percentage of the total exploration time, 2) the number of entries into the open arms of the maze, expressed as a percentage of the total number of entrances to both types of arms, and 3) the total number of entries into all arms of the maze—as a locomotor activity of the animals. If the mouse spends more time in the open arms than in the closed arms, this indicates an anxiolytic effect of the compounds tested. Exposed arms pose a risk of falling and therefore act as a mild stressor. Anxious mice are more likely to switch between open and enclosed arms and spend more time in enclosed arms than less anxious mice.^[ [11], [17], [44], [45] ^]

For another test, the target named is 5‐HT2A receptor (Rattus norvegicus, UniProt P14842). Description: Inhibition of 5‐HT‐evoked contractions in isolated rat ileum. Set-up: segments (1–1.5 cm) of ileum were removed, flushed of luminal contents, and placed in Krebs solution; from tissue; host or cells: isolated rat (Sprague-Dawley) ileum segments. To be noted: 5‐HT 10^−5 M, compounds 10^−8–10^−5 M; for Emax: read-out: EMAX, maximal inhibitory effect on 5‐HT‐induced contractions in the rat ileum; for IC50: IC50, inhibition of 5‐HT‐induced contractions in the rat ileum, contact time 10 min. Here is the method:
Male rats (Sprague‐Dawley, 160–200 g; Charles River Laboratories; Calco, Italy) were manipulated and cared for in strict compliance with the principles of laboratory animal care. Experimental procedures were conducted in conformity with Italian (D.L. 26/2014) and European (directive 2010/63/EU) regulations on the protection of animals used for scientific purposes and approved by the Italian Ministry. Animal housing complied with recent pharmacological guidance.^[ [40] ^] All animals weighing 160–200 g were used after a 1‐week acclimation period (temperature 23 ± 2 °C; humidity 60%, free access to water and standard food).
The segments were prepared as previously described:^[ [41] ^] the segments were set up in such a way as to record contractions mainly from the longitudinal axis, in an organ bath containing 20 mL of Krebs solution, bubbled with 95% O2 and 5% CO2 and maintained at 37 °C. The tissues were connected to an isotonic transducer (load: 0.5 g), connected to Power Lab system (Ugo Basile, Comerio, Italy). Ileal segments were equilibrated for 60 min^[ [16] ^] followed by three repeated additions of submaximal concentration of 5‐HT (10^−5 M) in order to record stable control contractions. […] The contact time for each concentration was 10 min. The compounds were dissolved in DMSO. […] Results are expressed as mean (SEM). […] The IC50 and Emax values were calculated with the aid of a computer program (GraphPad Prism 5).

[1] abbreviates: 30 mg kg^−1 i.p. 60 min before test.
The mark [2] stands for this setting: 15 mg kg^−1 i.p. 60 min before test.

Sequence of 5‐HT2A receptor (P14842 whole entry): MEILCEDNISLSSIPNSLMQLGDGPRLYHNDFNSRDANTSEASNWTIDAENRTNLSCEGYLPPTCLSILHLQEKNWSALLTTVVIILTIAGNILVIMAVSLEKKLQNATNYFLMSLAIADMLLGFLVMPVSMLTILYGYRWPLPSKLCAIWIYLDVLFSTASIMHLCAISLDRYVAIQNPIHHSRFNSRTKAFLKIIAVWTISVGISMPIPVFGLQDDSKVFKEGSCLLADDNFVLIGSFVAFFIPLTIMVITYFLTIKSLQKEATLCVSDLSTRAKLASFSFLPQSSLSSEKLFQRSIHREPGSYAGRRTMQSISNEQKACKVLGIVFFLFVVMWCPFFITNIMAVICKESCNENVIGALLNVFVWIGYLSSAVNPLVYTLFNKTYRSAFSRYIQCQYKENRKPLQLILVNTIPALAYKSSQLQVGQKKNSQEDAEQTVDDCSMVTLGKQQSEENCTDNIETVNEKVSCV

As for `O=C(NCCCN1CCN(c2ccccc2C2=NCCS2)CC1)c1ccccn1` [FG‐1, N‐(3‐(4‐(2‐(4,5‐dihydrothiazol‐2‐yl) phenyl) piperazin‐1‐yl) propyl) picolinamide], in the test with mice (setting [1]), the “EPM, percentage of the open arm entries” value is recorded as “increase in the percentage of open arm entries” and the “EPM, percentage of time spent in open arms” value (“EPM, percentage of time spent” below) was “significant increase in time spent in open arms”.
One may read the Emax as the maximal effect, on the per cent scale that the assay sets. The term IC50 denotes the midpoint of a concentration-inhibition curve. A low value points to greater potency. As to `O=C(NCCCN1CCN(c2cccc(C3=NCCS3)c2)CC1)c1ccccn1` [FG‐2, N‐(3‐(4‐(3‐(4,5‐dihydrothiazol‐2‐yl) phenyl) piperazin‐1‐yl) propyl) picolinamide], on 5‐HT2A receptor, the Emax came to 25.4% and the half-maximal inhibitory concentration (IC50) is 6120 nM.
For `O=C(NCCCN1CCN(c2ccc(C3=NCCS3)cc2)CC1)c1ccncc1` [FG‐6, N‐(3‐(4‐(4‐(4,5‐dihydrothiazol‐2‐yl) phenyl) piperazin‐1‐yl) propyl) isonicotinamide], in the test with mice (7.5 mg kg^−1 i.p. 60 min before test), the “EPM, percentage of the open arm entries” value is listed as “increase in the percentage of open arm entries”. Besides, in the test on mice (setting [2]), the “EPM, percentage of the open arm entries” value is “increase in the percentage of open arm entries” and the “EPM, percentage of time spent” value is recorded as “significant increase in time spent in open arms”.
On to `O=C1C2C3C=CC(C3)C2C(=O)N1OCCCN1CCN(c2ccccc2C2=NCCS2)CC1` (stereo not shown) [FG‐7, 2‐(3‐(4‐(2‐(4,5‐dihydrothiazol‐2‐yl) phenyl) piperazin‐1‐yl) propoxy)‐3a,4,7,7a‐tetrahydro‐1 H‐4,7‐methanoisoindole‐1,3(2 H)‐dione], for which the “EPM, percentage of time spent” value in the test on mice (setting [2]) is “significant increase in time spent in open arms”. The “EPM, percentage of the open arm entries” value in the test on mice (setting [1]) was “increase in the percentage of open arm entries”. In addition, at 5‐HT2A receptor, the Emax was found to be 24.5% and the 50% inhibitory concentration (IC50) is 1790 nM.
Turning to `O=C1C2C3C=CC(C3)C2C(=O)N1OCCCN1CCN(c2cccc(C3=NCCS3)c2)CC1` (stereo not shown) [FG‐8, 2‐(3‐(4‐(3‐(4,5‐dihydrothiazol‐2‐yl) phenyl) piperazin‐1‐yl) propoxy)‐3a,4,7,7a‐tetrahydro‐1H‐4,7‐methanoisoindole‐1,3(2H)‐dione], at 5‐HT2A receptor, the Emax is 21.4% and the IC50 was determined as 155 nM.
With `O=C(NCCCN1CCN(c2ccc(C3=NCCS3)cc2)CC1)C1CC2C=CC1C2` (stereo not drawn) [FG‐18, Endo‐ N‐(3‐(4‐(4‐(4,5‐dihydrothiazol‐2‐yl)phenyl)piperazin‐1‐yl)propyl) bicyclo[2.2.1]hept‐5‐ene‐2‐carboxamide], in the test with mice (setting [1]), the “EPM, percentage of time spent” value is listed as “significant increase in time spent in open arms”. Further, on 5‐HT2A receptor, the Emax worked out at 32.8% and the IC50 was determined as 2970 nM.
